Laboratory results taken from US20250188411A1, “METHOD FOR SELECTIVE REMOVAL OF […] PLURIPOTENT STEM CELLS” (Buddhist Tzu Chi Medical Foundation, priority 2023, published 2025).

Experiments:
[1] = test system: neuronal cells differentiated from human iPSCs; experiment: Treatment of neuronal cell spheroids on day 25 of SFEB differentiation, morphology and NeuN/NF immunofluorescence; assay type: cell-based
Procedure: (§1) 3. Neural Differentiation of Human iPSCs Using the Serum-Free Embryoid Body (SFEB) Method: The differentiation of iPSCs into neural cells was performed in four steps. The first three steps involved SFEB suspension, in which suspended spheroid cells were cultured for 35 days, and the fourth step is a 3-day cell adhesion growth:
(§2) Step 1: iPSCs were aggregated into suspended embryoid bodies (EBs), which is an initial step of differentiation. iPSCs were treated with 1 mg/mL Dispase II until the edges rolled up, then rinsed three times with PBS. The iPSCs were collected by a cell scraper and dispersed into cell mass with appropriate size by visual inspection of pipet. After suspended in Essential 6 medium containing RevitaCell, and the iPSCs were transferred to a sterile, non-adherent 6 cm2 culture plate for a 2-day suspension culture, with daily medium changing.
(§3) Step 2: The EBs were transferred to a 15 mL centrifuge tube for settlement at room temperature, and the EBs were cultured in suspension for 2 days by adding neural induction medium (NI medium, Gibco) after removal of the supernatant. […]
(§4) Step 4: The cells were attached to a culture plate coated with 1% basement membrane matrix or laminin/ornithine. […] The cells grow outward from the center of the colony, and after 3 days of continued culture, the cells were ready for experimentation. […]

[2] = test system: human induced pluripotent stem cells (iPSCs); experiment: Treatment of cultured human iPSCs with n-butylidenephthalide, cell morphology and survival; assay type: cell-based; conditions: for number of human iPSCs versus control (Ctrl) and DMSO control: 100 μM
Procedure: 1. Culture of iPSCs in Essential 8 Feeder-Free Culture Medium: Human iPSCs were cultured in Essential 8 medium (Gibco) in culture dishes treated with basement membrane matrix (Matrigel). Subculture was performed when the cells reached 70% to 80% confluence, approximately 3 to 5 days. During subculture, the cells were rinsed twice with PBS until the edges began to lift, followed by treatment with a cell dissociation regent (Accutase) for 1 to 5 minutes to round up most of the cells. The cell dissociation regent was then diluted with DMEM/F12, and DMEM medium was added. The cells were scraped with even force by a cell scraper, dispersed into cell mass with appropriate size by mechanical force, and plated at an appropriate ratio (about 1:5 to 1:10) with 10 μM of Y27632 added.
(§5) a. Drug Efficacy and Concentration Testing: n-Butylidenephthalide was diluted to different concentrations and administered to cells at final concentrations ranging from 50 to 750 μM. The types of administered cells include cultured human iPSCs, human iPSCs aggregated into SFEBs for one day, neural stem cells on day 10 of SFEB differentiation, neurons on day 25 of SFEB differentiation, and cells on day 5 of neural differentiation by the adhesion. The concentrations and treatment durations were as described in the Examples.
Human induced pluripotent stem cells (iPSCs) were collected and cultured in Essential 8 medium without a feeder layer. After 24 hours of treatment with different concentrations of n-butylidenephthalide (100 μM, 200 μM, 500 μM, and 750 μM), the cell morphology was shown in FIG. 1A.

[3] = test system: differentiated neurons derived from human iPSCs; experiment: Calcium ion imaging of differentiated neurons after KCl and glutamic acid stimulation; assay type: cell-based; conditions: tested day 38
Procedure: d. Calcium Ion Imaging Analysis: Cells were seeded onto 10 mm diameter coverslips coated with Geltrex and cultured in NB medium supplemented with RevitaCell and Compound E for 3 days. A 1 μM solution of Fluo-4 was prepared in physiological buffer. The coverslips were incubated in the Fluo-4 solution at 37° C. for 40 minutes, followed by incubation in physiological buffer at 37° C. for 20 minutes. The coverslips were then transferred to a calcium imaging chamber for perfusion imaging. The cells were perfused with physiological buffer for 30 seconds, then switched to 60 mM KCl perfusion for one minute, followed by physiological buffer perfusion for five minutes. Subsequently, the cells were perfused with 1 mM L-glutamic acid for one minute, followed by physiological buffer perfusion for five minutes. Images were captured using a Nikon ECLIPSE Ti2-E microscope and analyzed with NIS-Elements AR software.
Three sets of cells were prepared: one set of cells cultured without n-butylidenephthalide treatment (Ctrl), another set cultured with 500 μM n-butylidenephthalide for 120 hours on day 10 of differentiation (NPC-BP500), and a third set cultured with 500 μM n-butylidenephthalide for 120 hours on day 25 of differentiation (Neuron-BP500). […]

[4] = test system: undifferentiated pluripotent stem cells expressing Oct-4; experiment: Oct-4 / N-cadherin immunofluorescence on day 5 of neural stem cell adhesion differentiation; assay type: cell-based, human; conditions: 50, 100 and 200 μM for 24 hours on day 5 of differentiation, FIG. 6
Procedure: 4. Neural Stem Cell Adhesion Differentiation of Human iPSCs (Neural Stem Cell Adhesion Differentiation Method): Human iPSCs, cultured in a feeder-free environment, were subcultured at a 1:10 ratio for neural stem cell differentiation. The differentiation was induced by using a neural induction medium composed of DMEM/F12 (2:1) and N2 supplement, with the addition of basic FGF (10 mg/mL), SB431542 (2 μM), and CHIR99021 (3 μM). The medium was changed every two days with proteins and small molecules re-added. Culture time for this neural stem cell adhesion differentiation is up to 7 days.
as §5
a. Immunofluorescence Staining Method: Chamber slides were surface-treated with 1% basement membrane matrix for 3 to 4 hours, and the slides were set aside after the matrix was removed. […] The slides were stored in the dark at 4° C. for subsequent analysis under a fluorescence microscope. […]

[5] = test system: neural stem cells differentiated from human iPSCs; experiment: Treatment of neural stem cells on day 10 of SFEB differentiation, morphology and NeuN/NF immunofluorescence; assay type: cell-based
Procedure: as §1, §2, §3, §4

[6] = test system: dopamine neurons differentiated from human iPSCs; experiment: Identification of differentiating dopamine neurons (CHSF-DA method): markers, dopamine ELISA, patch-clamp; assay type: cell-based; conditions: 100 μM on days 23 to 28 of CHSF-DA differentiation, FIGS. 8A to 8M
Procedure: 2. Dopaminergic Neuron Adherent Differentiation of Human iPSCs (CHSF-DA Differentiation Method): Human iPSCs, cultured in feeder-free environment, were subcultured at a 1:10 ratio for dopaminergic neurons differentiation. For induction, a neural induction medium composed of DMEM/F12 (2:1) and N2 supplement were used and dopaminergic precursor cell-inducing factors basic FGF (FGF-basic, as known as FGF-2 or bFGF) (10 mg/mL), SB431542 (2 μM), CHIR99021 (7.5 μM), SAG (1 μM), and LDN193189 (0.2 μM) were added in days 1 to 12 of the differentiation process. On day 13 of the differentiation process, the medium was switched to a neuron culture medium (Neurobasal medium and N2/B27 supplements), with SAG (0.5 μM) added from days 13 to 18. SAG was removed on day 18, and 100 μM of n-butylidenephthalide was added on days 23 to 28 for a total of 6 days. The cells were subsequently cultured in Neurobasal medium with N2/B27 supplements, the medium was changed every 2 days during the differentiation process with proteins and small molecules re-added.
b. Application of n-Butylidenephthalide in Dopaminergic Neuron Preparation: 100 μM of n-Butylidenephthalide was added from days 23 to 28 during the CHSF-DA differentiation process for a total of 6 days.
a. […] The slides were stored in the dark at 4° C. for subsequent analysis under a fluorescence microscope. […]

[7] = test system: embryoid bodies derived from human iPSCs; experiment: Treatment of embryoid bodies from human iPSCs (SFEB suspension, one day), morphology and trypan blue staining; assay type: cell-based; conditions: 24 hours
Procedure: as §2, §5
Cultured and collected iPSCs were aggregated into spheres using the SFEB suspension method and suspended in culture medium to simulate the three-dimensional structure of general pluripotent cell differentiation and transplantation. After only one day of suspension differentiation, the cells aggregated into structurally complete spheres (embryoid bodies).

[8] = test system: residual undifferentiated pluripotent stem cells; conditions: early treatment; cited from earlier work

Row | Compound | damage to neuronal cell spheroids or cell death ([1]; 50, 100, 200 and 500 μM for 120 hours from day 25 of differentiation, FIG. 4B) | NeuN and NF expression and morphology of treated mature neurons ([1]; treated from day 25, cultured until day 38, FIG. 4C) | number of human iPSCs versus control (Ctrl) and DMSO control ([2]; 24 hours, FIG. 1A) | number of human iPSCs versus control (Ctrl) and DMSO control ([2]; 48 hours, FIG. 1B) | cell morphology of human iPSCs ([2]; 200 μM, 48 hours, FIG. 1B) | adherence and survival of human iPSCs ([2]; concentrations above 500 μM, 24 hours, FIG. 1A) | survival of human iPSCs ([2]; concentrations above 500 μM, 48 hours, FIG. 1B) | calcium ion changes after KCl and glutamic acid stimulation versus Ctrl ([3]; NPC-BP500: 500 μM for 120 hours on day 10 of differentiation) | calcium ion changes after KCl and glutamic acid stimulation versus Ctrl ([3]; Neuron-BP500: 500 μM for 120 hours on day 25 of differentiation) | proportion of undifferentiated pluripotent stem cells expressing Oct-4 [4] | cell death or morphological changes of suspended neural stem cell spheres ([5]; 50, 100, 200 and 500 μM for 120 hours from day 10 of differentiation, FIG. 3A) | ability of treated neural stem cells to differentiate into mature neurons (NeuN, NF) ([5]; treated from day 10, cultured until day 38, FIG. 3B) | effect on specific protein expression and neurological function of dopamine neurons [6] | viable cells by trypan blue staining ([7]; 200 μM) | viable cells by trypan blue staining ([7]; 500 μM) | morphology of suspended spheres (embryoid bodies) ([7]; 500 μM, FIG. 2) | presence of residual undifferentiated pluripotent stem cells [8]
1 | CCCC=C1OC(=O)c2ccccc21 [n-butylidenephthalide] | no damage to the spheroids or cell death was observed | exhibiting typical nerve fiber morphology | significantly lower | significantly lower | obvious floating and cell death | did not adhere or survive | No cells survived | no statistically significant differences | no statistically significant differences | decreased significantly | no cell death or morphological changes were observed | able to differentiate normally into mature neurons | did not affect the expression of specific proteins or the neurological function of dopamine neurons | decrease in viable cells | no viable cells were observed | all dispersed and died | 
2 | O=c1c(O)c(-c2ccc(O)c(O)c2)oc2cc(O)cc(O)c12 [quercetin] |  |  |  |  |  |  |  |  |  |  |  |  |  |  |  |  | can reduce
